Columns and labels:
[1] = system: monkeys; details: single administration; cited from earlier work
[2] = system: mice; details: single administration; cited from earlier work
[3] = Water and lipid solubility of modafinil (observation in background)

NC(=O)C[S+]([O-])C(c1ccccc1)c1ccccc1 (stereo not drawn) [modafinil, 2-(benzhydryl-sulfinyl)acetamide]
nocturnal activity [1]: increased nocturnal activity | locomotor activity [2]: increased locomotor activity | water and lipid solubility [3]: very poor
